The results in this text go back to PubChem BioAssay (NCI).

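In this assay, cells in 96-well plates receive the compound at five concentrations for 48 hours. Endpoints are linearly interpolated between the surrounding concentrations. GI50 = concentration required for 50% inhibition of growth. TGI is the concentration that stops growth completely.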

Some test systems named below: M14 melanoma; HL-60(TB) leukemia; COLO 205 colon; HOP-92 NSCLC; HCT-15 colon; HCC-2998 colon; SN12C renal; SR leukemia; BT-549 breast; HS 578T breast; MDA-N.
Common to all, as to assay: NCI anticancer screen, dose series, 48 h

With `COc1cc2c(cc1OC)C(C(CO)CO)N(CC(O)CCl)CC2` (stereo unspecified), the TGI in the test on M14 melanoma, in the test on HL-60(TB) leukemia, with COLO 205 colon, with HOP-92 NSCLC, in the test with HCT-15 colon and with HCC-2998 colon was more than 100 µM throughout.
With `CCOC(=O)c1cc(-c2cc(OC)c(OC)c([N+](=O)[O-])c2)c([N+](=O)[O-])n1C`, the TGI with M14 melanoma, with HL-60(TB) leukemia, in the test with SN12C renal, with HOP-92 NSCLC, with SR leukemia and in the test on HCT-15 colon was more than 10 µM throughout. Further, the TGI with BT-549 breast, in the test on HS 578T breast and in the test with HCC-2998 colon was more than 10 µM in each case.
Regarding `Nc1ncnc2c1nnn2C1C=CC(COS(N)(=O)=O)C1` (stereo unspecified), the TGI in the test with M14 melanoma was 25 µM; with HL-60(TB) leukemia, 17.1 µM; with SN12C renal, more than 100 µM; in the test with COLO 205 colon, 17.4 µM; in the test on SR leukemia, more than 100 µM; in the test with MDA-N it was 19 µM. The TGI was more than 100 µM in the test with HCT-15 colon, 8.3 µM in the test with HS 578T breast and 76.2 µM with HCC-2998 colon.
With `O=C1Nc2ccccc2C12CCNC2Cc1ccccc1` (stereo unspecified), the TGI with M14 melanoma, in the test on HL-60(TB) leukemia, with COLO 205 colon, in the test on HOP-92 NSCLC, with HCT-15 colon and in the test on HCC-2998 colon was more than 100 µM in each case.
Take `COc1ccc(-c2cc(=O)c3cc4c(cc3[nH]2)OCO4)cc1OC`: the TGI in the test with M14 melanoma, with HL-60(TB) leukemia, in the test on SN12C renal, in the test with COLO 205 colon, in the test on HOP-92 NSCLC and with SR leukemia was more than 100 µM in each case. The TGI in the test with HCT-15 colon and with HCC-2998 colon was more than 100 µM each time.
With `NC(CCCC(N)P(=O)(O)c1ccccc1)P(=O)(O)c1ccccc1` (stereo unspecified), the TGI with M14 melanoma, in the test with HL-60(TB) leukemia, with SN12C renal, in the test with COLO 205 colon, in the test on HOP-92 NSCLC and with SR leukemia was more than 261 µM in each case. For the same compound, the TGI in the test on HCT-15 colon and in the test on HCC-2998 colon was more than 261 µM each time.
Regarding `Cc1nc(Nc2ccc(Cl)cc2)sc1C(=O)NNc1ccc([N+](=O)[O-])cc1[N+](=O)[O-]`, the TGI amounted to 45.3 µM in the test with M14 melanoma; 43.5 µM in the test with HL-60(TB) leukemia; 36.2 µM with SN12C renal; 39.9 µM with COLO 205 colon; 41.4 µM in the test on HOP-92 NSCLC; 30 µM with HCC-2998 colon.
Regarding `C[n+]1c(-c2ccc(/C=N/NC(=N)N/N=C/c3ccc(-c4cn5cc(Cl)ccc5[n+]4C)cc3)cc2)cn2cc(Cl)ccc21`, the TGI in the test on M14 melanoma, in the test with HL-60(TB) leukemia, in the test with SN12C renal, in the test with COLO 205 colon, in the test on SR leukemia and with HCT-15 colon was more than 100 µM in each case. Besides, the TGI in the test on HS 578T breast and in the test on HCC-2998 colon was more than 100 µM each time.
Consider `Cc1cccc2c(=O)c([Se]c3coc4c(C)cccc4c3=O)coc12`, for which the TGI in the test with M14 melanoma was 30.3 µM; in the test on HL-60(TB) leukemia it was more than 100 µM; with SN12C renal it was 37.9 µM; with HOP-92 NSCLC it was 40.5 µM; in the test with SR leukemia, 79 µM; with HCT-15 colon, 39.2 µM. This compound also displayed a TGI with HCC-2998 colon of 44.8 µM.
Consider `CCOC(=O)C1(C/C=C(/C)Cl)CCCC1=O` (stereo unspecified), for which the TGI with M14 melanoma is more than 100 µM; with HL-60(TB) leukemia it was more than 100 µM; in the test on SN12C renal, more than 100 µM; with COLO 205 colon, more than 100 µM; with SR leukemia it was 45.7 µM; with HCT-15 colon, more than 100 µM.
Take `O=C(Nc1cccc(-n2ccc3c(NC(=O)c4ccccc4)nccc32)c1)Nc1cc(C(F)(F)F)cc(C(F)(F)F)c1`: the GI50 with M14 melanoma was 1.11 µM; in the test on HL-60(TB) leukemia, 1.72 µM; in the test on SN12C renal it was 2.05 µM; with COLO 205 colon, 1.68 µM; in the test with HOP-92 NSCLC it was 0.853 µM; in the test on SR leukemia, 1.72 µM. Moreover, the values for the GI50 in the test on HCT-15 colon, with HS 578T breast and in the test on HCC-2998 colon were 1.07 µM, 1.44 µM and 2.1 µM, respectively. Also, the TGI was determined as 2.56 µM in the test with M14 melanoma; 5.01 µM in the test on HL-60(TB) leukemia; 29.4 µM with SN12C renal; 5.29 µM in the test on COLO 205 colon; 3.95 µM with HOP-92 NSCLC; 6.48 µM in the test on SR leukemia. The results for the TGI in the test on HCT-15 colon, in the test with HS 578T breast and with HCC-2998 colon were 33.2 µM, more than 50 µM and more than 50 µM, respectively.
`CN1CCCC2(CCCc3ccccc32)C1` (stereo unspecified): the TGI in the test on M14 melanoma, in the test on HL-60(TB) leukemia, in the test with SN12C renal, in the test with COLO 205 colon, in the test on HOP-92 NSCLC and in the test on SR leukemia was more than 100 µM throughout. The TGI with HCT-15 colon and in the test on HCC-2998 colon was more than 100 µM throughout.
As to `C[C@]12CCC(=O)C=C1CC[C@@H]1[C@@H]2[C@@H](O)C[C@@]2(C)[C@H]1CC[C@]2(O)C(=O)COC(=O)COCC(=O)O`, the TGI with M14 melanoma, with HL-60(TB) leukemia, with SN12C renal, in the test with COLO 205 colon, with HOP-92 NSCLC and with HCT-15 colon was more than 100 µM throughout. Besides, in the test with HCC-2998 colon, the TGI was more than 100 µM.
For `COc1cc2c(c(OC)c1OC)-c1ccc(SC)c(=O)cc1[C@@H](NCc1ccc(C#N)cc1)CC2`, the TGI with HL-60(TB) leukemia is 0.0089 µM; with SN12C renal it was more than 100 µM; with COLO 205 colon it was 0.0128 µM; in the test on HOP-92 NSCLC, more than 100 µM; with SR leukemia, 18.5 µM; with HCT-15 colon, 0.0463 µM. In the test on HCC-2998 colon, this compound gave a TGI of 0.00662 µM.
Take `Clc1ccc(SC(/C=C/NNC2=NC(c3ccccc3)C(c3ccccc3)=NN2)c2ccccc2)cc1` (stereo unspecified): the TGI is 46 µM with M14 melanoma; 41.9 µM in the test on HL-60(TB) leukemia; more than 100 µM in the test with SN12C renal; 45.6 µM in the test with COLO 205 colon; 32.6 µM in the test on HOP-92 NSCLC; more than 100 µM in the test on HCT-15 colon. Moreover, the TGI in the test on HCC-2998 colon came to 44.3 µM.
Regarding `BrCCCCCOc1ccc(-c2c3ccccc3c(-c3ccc(OCCCCCBr)cc3)c3ccccc23)cc1`, the TGI in the test on M14 melanoma, in the test with HL-60(TB) leukemia, in the test with SN12C renal, in the test on COLO 205 colon, in the test on SR leukemia and with MDA-N was more than 100 µM each time. The TGI in the test on HCT-15 colon, in the test with HS 578T breast and in the test on HCC-2998 colon was more than 100 µM throughout.
Consider `[N-]=[N+]=C1N=CN=C1c1ncn[nH]1`, for which the TGI with M14 melanoma was more than 100 µM; in the test on HL-60(TB) leukemia, 40.5 µM; in the test on SN12C renal, 93.9 µM; in the test on COLO 205 colon it was more than 100 µM; with HOP-92 NSCLC, 45 µM; in the test on MDA-N, more than 100 µM. The TGI with HCT-15 colon and in the test with HCC-2998 colon was more than 100 µM each time.
`Cc1ccc(S(=O)(=O)N/N=C(\c2nc3ccc(Cl)cc3[nH]c2=O)C(O)c2cccc([N+](=O)[O-])c2)cc1` (stereo unspecified): the TGI in the test with M14 melanoma, in the test on HL-60(TB) leukemia, in the test with SN12C renal, with COLO 205 colon, with HOP-92 NSCLC and in the test on SR leukemia was more than 100 µM each time. In addition, the TGI in the test on HCT-15 colon and with HCC-2998 colon was more than 100 µM throughout.
Turning to `CN(C)c1ccc(C(=C(c2ccc(N(C)C)cc2)c2ccc(N(C)C)cc2)c2ccc(N(C)C)cc2)cc1`, the TGI in the test with M14 melanoma was 22 µM; in the test with HL-60(TB) leukemia it was 26.5 µM; in the test with SN12C renal it was 35.2 µM; with COLO 205 colon, more than 100 µM; in the test on SR leukemia, 30.8 µM; with HCT-15 colon it was 32.7 µM. The compound further registered a TGI with HCC-2998 colon of 35.3 µM.
As to `O=S(=O)(c1ccccc1)n1c2ccc(Br)cc2c2nc3ccccc3nc21`, the TGI with M14 melanoma, in the test on SN12C renal, in the test with COLO 205 colon, in the test with HOP-92 NSCLC, in the test on SR leukemia and in the test on MDA-N was more than 100 µM throughout. For the same compound, the TGI with HCT-15 colon, with HS 578T breast and in the test with HCC-2998 colon was more than 100 µM in each case.
With `CCOC(=O)c1ccc(Nc2c3c(nc4ccccc24)CCCC3)cc1`, the TGI in the test on M14 melanoma is more than 100 µM; in the test with HL-60(TB) leukemia, more than 100 µM; with SN12C renal it was more than 100 µM; with COLO 205 colon it was more than 100 µM; with HOP-92 NSCLC, more than 72.6 µM; with SR leukemia, more than 100 µM. Also, the TGI in the test on HCT-15 colon, in the test with BT-549 breast, with HS 578T breast and in the test with HCC-2998 colon was more than 100 µM each time.
For the compound `O=C1c2ccc(O)cc2C(=O)c2ccc(O)cc21`, the TGI in the test with M14 melanoma, in the test with HL-60(TB) leukemia, in the test with SN12C renal, in the test with COLO 205 colon, in the test with HOP-92 NSCLC and with HCT-15 colon was more than 100 µM throughout. For the same compound, the TGI in the test with HCC-2998 colon is more than 100 µM.
Consider `CC(C)(C)N=NNc1cn(C2OC(CO)C(O)C2O)c(=O)[nH]c1=O` (stereo unspecified), for which the TGI is more than 100 µM in the test with M14 melanoma; more than 100 µM with HL-60(TB) leukemia; more than 100 µM in the test on SN12C renal; more than 100 µM in the test with COLO 205 colon; more than 100 µM in the test on HOP-92 NSCLC; 50.8 µM with SR leukemia. Also, the TGI in the test with HCT-15 colon and in the test on HCC-2998 colon was more than 100 µM in each case.
